Assay results from patent US20240180930A1, “CARBONIC ANHYDRASE 1 (CA1) INHIBITORS FOR THE TREATMENT OR PREVENTION OF MYELOPROLIFERATIVE DISORDERS AND OTHER HEMATOPOIETIC MALIGNANCIES, AND AS BIOMARKER OF MYELOPROLIFERATIVE DISORDERS AND OTHER HEMATOPOIETIC MALIGNANCIES” (COMMISSARIAT A L'ENERGIE ATOMIQUE ET AUX ENERGIES …, priority 2021, published 2024).

Assays:
[1] = test system: ICN1 leukemic cells; assay: ICN1 leukemia in vivo survival; set-up: species or system mouse
Description: ICN1 leukemia. Non-conditioned C57BL/6J (CD45.2) recipient mice were intravenously transplanted with 1.5×10^4 ICN1 leukemic cells in 100 uL of PBS. Seven days after transplantation, when blast cells are detected in the peripheral blood, recipient mice were daily treated or not by intravenous injection of furosemide at 20 mg/Kg.

[2] = test system: CD34^+ cells from PV patients; assay: BFU-E from CD34+ cells of PV patients treated with furosemide; format: cell-based, human; conditions: 5 and 20 μg/mL of furosemide, 100% = absence of furosemide
Description: FIG. 9: CA1 protein expression and furosemide treatment of CD34^+ cells from PV patients. (A) CA1 protein expression in human CD34^+ cells from control and JAK2^V617F PV patients (left) (n=4) and (B) CA1 expression level normalized against GAPDH expression level (right). (C) Effects of 5 and 20 μg/mL of furosemide on the percentages of BFU-E from CD34^+ cells of PV patients (n=4). 100% is used as percentage of BFU-E in the absence of furosemide (N.T.). N) Relative percentage of JAK2^V617F Variant Allele Frequency (VAF) in the BFU-E after treatment with 5 and 20 ug/mL of furosemide. 100% is used as percentage of VAF in the BFU-E in the absence of furosemide (N.T.). Data are mean +/−s.e.m. Significance was assessed using unpaired 2-tailed t test and two way ANOVA followed by post-hoc analysis (*<0.05, **<0.01, ***<0.001, ****<0.0001).
Whole-transcriptome RNA-seq on CD34+ cell from Patients. The patients were selected for their high JAK2^V617F variant allele frequency (from 60 to 100% VAF). […] The RNA integrity (RNA Integrity Score>7.0) was checked on the Agilent 2100 Bioanalyzer (Agilent) and quantity was determined using Qubit (Invitrogen). […]

[3] = test system: mice transplanted with JAK2^V617F BM cells; assay: Single irradiated-leg mouse model of Polycythemia Vera, pharmacologic treatment; format: in vivo
Description: Mice. The conditional flexed Jak2^V617F KI mice (Hasan et al.; Blood 122, 1464-1477; 2013) were crossed with VavCre transgenic (TG) mice (Croker et al., SOCS3 Is a Critical Physiological Negative Regulator of G-CSF Signaling and Emergency Granulopoiesis. Immunity 20, 153-165 (2004)) to express the mutant Jak2. To easily evaluate allele burden in kinetic experiments, Jak2^V617F KI/VavCre mice were also crossed with UbiGFP TG mice in Gustave Roussy' animal facilities. For one-leg transplantation, F1 crossed B6.SJL/BoyJ (CD45.1)×C57BL/6J (CD45.2) mice were used as recipient mice. All mice were housed in a specific pathogen-free section at an animal facility of CEA/DRF/IBFJ/iRCM according to the institutional guidelines and French Ministry of Agriculture's regulations.
One leg irradiation and transplantation. Recipient mice were anesthetized with ketamine-xylazine and their leg was fixed on a tray with only the leg left towards the opposite side to their body. The tray was put in the radiation field of a GSRD1 radiation equipment. The mouse body was shielded from irradiation with lead plates and the leg was irradiated at 2×5 Gy with an interval of 17 h. Bone marrow (BM) cells (1×10^7) were intravenously transplanted into the irradiated mice 7 hours after the second irradiation. For barcode and shRNA experiments, 10,000 transduced Lin^−Scal^+cKit^+ (LSK) hematopoietic cells were intrafemorally transplanted into irradiated leg under Isoflurane anesthetic.
Blood analysis. Blood was collected and analyzed through a hemocytometer (CD3700, ABBOTT). The rest of blood was subjected to hemolysis by using an ammonium chloride solution ([…]). The hemolyzed blood were stained with antibodies against CD45.1 (A20) and CD45.2 (104) and analyzed through flow cytometry to examine blood chimerism.
BM cells (femur and tibia) of irradiated leg and of non-irradiated leg were harvested by flushing with 1 mL of PBS. After centrifugation, BM supernatants were collected and kept at -80° C. with anti-protease (ROCHE) for chemokine analyses. BM cells were suspended in PBS and splenocytes were also collected in PBS by crushing spleen on a 70 μm filter. Before hemolysis, cells were stained with Ter119 (TER-119) and CD71 (C2) antibodies for the examination of erythroid compartments. The rest of cells were hemolyzed and stained for analyses of granulocytes, hematopoictic progenitor cells (HPCs) and hematopoietic stem cells (HSCs) by using antibodies against CD45.1 (A20), CD45.2 (104), CD11b (M1/70), Gr-1 (RB6-8C5), c-Kit (2B6), Sca-1 (D7 or E13-161.7), CD34 (RAM34 or MEC14.7), CD16/32 (93), CD48 (HM48-1) and CD150 (TC15-12F12.2). […] For cell cycle analyses, stained HSPCs were permeabilized with Cytofix/Cytoperm buffer following manufacturer's instructions (BD Biosciences) and labelled with anti-Ki67 antibody (SolA15) and Hoechst 33342. All antibodies were purchased from BioLegend, eBioscience, or BD Biosciences. Flow cytometry analyses were performed through FACS Canto II (BD Biosciences) and LSR II (BD Biosciences), and cell sorting was conducted by using FACS Aria II (BD Biosciences). Analyses were performed with the FlowJo software (TRISTAR) and illustrated with the Prism7 software (GraphPad).
Pharmacologic treatment. Furosemide was purchased from Sigma (MKCF8657), dissolved in DMSO for stock solution (50 mg/mL) and diluted in PBS solution prior to use. […] Spironolactone (SIGMA) was prepared in water bottles at 250 mg/Kg to treat recipient mice as described (Rafael-Fortney et al., Early treatment with lisinopril and spironolactone preserves cardiac and skeletal muscle in duchenne muscular dystrophy mice »; Circulation, 2011; 124:582-8). Acetozolamide was purchased from SIGMA (A6011), dissolved in PBS and solubilized with NaOH (35%) until complete dissolution of the product.

Row | SMILES | survival rate ([1]; furosemide 20 mg/Kg daily intravenous, starting 1 week after transplantation of 1.5×10^4 ICN1 leukemic cells (FIG. 7)) | in vivo leukemia progression ([1]; furosemide daily, starting 1 week after transplantation (FIG. 7)) | JAK2^V617F variant allele frequency in the BFU-E [2] | percentages of BFU-E ([2]; n=4) | therapeutic effect (blood chimerism, spleen weight) ([3]; furosemide 5 mg/Kg daily, starting two weeks after transplantation, compared with 20 mg/Kg (FIG. 8)) | survival rate ([3]; furosemide 20 mg/Kg daily intravenous, starting 2 weeks after transplantation (FIG. 4i)) | JAK2^V617F cell burden in blood ([3]; furosemide 20 mg/Kg daily intravenous, starting 2 weeks after transplantation of JAK2^V617F BM cells (FIG. 4g)) | spleen weight ([3]; furosemide 20 mg/Kg daily intravenous, starting 2 weeks after transplantation, 8 weeks later (FIG. 4h)) | PV blood parameters ([3]; furosemide 20 mg/Kg daily intravenous, starting 2 weeks after transplantation, hematocrit and red blood cells count) | JAK2^V617F LT-HSC contribution to the LT-HSC compartment ([3]; furosemide after PV establishment, before treatment (10 weeks) vs end of treatment (31 weeks) (FIG. 4m)) | survival ([3]; furosemide daily after PV establishment, starting 10 weeks after transplantation) | blood JAK2^V617F cell burden ([3]; furosemide daily after PV establishment, starting 10 weeks after transplantation (FIG. 4j)) | hematocrit ([3]; furosemide daily after PV establishment, starting 10 weeks after transplantation (FIG. 4k)) | spleen weight ([3]; furosemide daily after PV establishment, starting 10 weeks after transplantation (FIG. 4l)) | PV associated symptoms ([3]; spironolactone 250 mg/Kg in water bottles, starting 2 weeks after transplantation) | survival of mice with PV ([3]; spironolactone 250 mg/Kg in water bottles, starting 2 weeks after transplantation (FIG. 5d))
1 | NS(=O)(=O)c1cc(C(=O)O)c(NCc2ccco2)cc1Cl [Furosemide, 4-chloro-2-(furan-2-ylmethylamino)-5-sulfamoylbenzoic acid] | improved survival rate is also reproduced | Slowing | decreased | decreased | therapeutic effect similar to the one obtained with 20 mg/Kg | improved | decreased | decreased | decreased | significant decrease | survival of the treated mice | rapid, stable and Furosemide-dependent decrease | decreased | decreased |  | 
2 | CC(=O)S[C@@H]1CC2=CC(=O)CC[C@]2(C)[C@H]2CC[C@@]3(C)[C@@H](CC[C@@]34CCC(=O)O4)[C@H]12 [Spironolactone] |  |  |  |  |  |  |  |  |  |  |  |  |  |  | no effect | no effect
